Measurements reported in patent US10800784B2, “Nitrogen-containing heterocyclic amide compound and pharmaceutical use thereof” (Japan Tobacco Inc., priority 2018, dated 2020).
Each block holds one compound with its values, some of them ahead of it.

Key:
[1] = biological target: human PDHK1 (hPDHK1) (Homo sapiens (Human), UniProt Q15118); assay: Inhibitory action of PDHK1 activity in vitro (residual PDH activity after PDHK reaction); format: biochemical; conditions: for IC50: PDH/hPDHK1 complex solution, PDHK reaction at room temperature for 45 min, NADH absorbance at 340 nm, read-out: hPDK1 IC50; for inhibition at 0.003 µM: at 3 nmol/L, shown when IC50 value could not be calculated, read-out: hPDHK1 inhibitory rate at the lowest concentration of the test compound
Sequence of human PDHK1 (hPDHK1) (Q15118 29-436): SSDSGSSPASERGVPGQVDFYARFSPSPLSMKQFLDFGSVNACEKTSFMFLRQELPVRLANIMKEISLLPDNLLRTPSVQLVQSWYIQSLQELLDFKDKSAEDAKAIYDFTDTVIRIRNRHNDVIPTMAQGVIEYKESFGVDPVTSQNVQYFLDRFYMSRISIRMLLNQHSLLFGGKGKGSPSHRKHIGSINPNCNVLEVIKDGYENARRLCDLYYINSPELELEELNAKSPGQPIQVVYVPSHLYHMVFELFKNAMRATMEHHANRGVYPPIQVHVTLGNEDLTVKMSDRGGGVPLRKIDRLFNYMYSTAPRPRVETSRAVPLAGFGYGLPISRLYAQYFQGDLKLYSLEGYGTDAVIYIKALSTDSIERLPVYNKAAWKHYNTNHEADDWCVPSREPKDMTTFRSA
In short: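 N-FLAG hPDHK1 (E. coli-expressed, 0.5 μg/mL) precomplexed overnight at 4 °C with porcine heart PDH (0.025 U/mL), then reacted 45 min at room temperature with compound and ATP (0.353 μmol/L as added) in MOPS pH 7.0 buffer. Residual PDH activity after 90 min with pyruvate, CoA, NAD, TPP read as NADH at 340 nm.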

[2] = biological target: human PDHK2 (hPDHK2) (Homo sapiens (Human), UniProt Q15119); assay: Inhibitory action of PDHK2 activity in vitro (residual PDH activity after PDHK reaction); format: biochemical; conditions: for IC50: PDH/hPDHK2 complex solution, PDHK reaction at room temperature for 45 min, NADH absorbance at 340 nm, read-out: kPDK2 IC50; for hPDHK2 inhibitory rate at the lowest concentration of the test compound: lowest concentration of the test compound in the assay (<3 nmol/L), shown when IC50 value could not be calculated
In short: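 Indirect assay: FLAG-tagged hPDHK2 (0.5 μg/mL) precomplexed overnight at 4 °C with PDH (0.025 U/mL), then kinase reaction with compound and ATP 45 min at room temperature, pH 7.0 MOPS buffer. Residual PDH activity measured after 90 min with pyruvate, CoA, NAD, TPP as NADH absorbance at 340 nm, corrected for compound effect on PDH-only blank.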

Structure (SMILES): C[C@H]1CN(C(=O)c2cnc3ccc(F)cn23)Cc2cnc([C@@](C)(O)C(F)(F)F)n21 [Example 8]
IC50 [1]: 49 nM
IC50 [2]: 34 nM

Structure (SMILES): C[C@H]1CN(C(=O)c2nn(C)c3cc(F)cc(F)c23)Cc2cnc([C@@](C)(O)C(F)(F)F)n21 [Example 7]
IC50 [1]: 8 nM
IC50 [2]: 10 nM

Structure (SMILES): C[C@H]1CN(C(=O)c2ccc(F)c(-c3cncc(F)c3)c2)Cc2cnc([C@@](C)(O)C(F)(F)F)n21 [Example 83]
IC50 [1]: 5 nM
IC50 [2]: 11 nM

Structure (SMILES): C[C@H]1CN(C(=O)c2ccnn2C2CC2)Cc2cnc([C@@](C)(O)C(F)(F)F)n21 [Example 32]
IC50 [1]: 13 nM
IC50 [2]: 10 nM

Structure (SMILES): C[C@H]1CN(C(=O)c2c(C#N)c(C3CC3)nn2C)Cc2cnc([C@@](C)(O)C(F)(F)F)n21 [Example 19]
IC50 [1]: 5 nM
IC50 [2]: < 3 nM
hPDHK2 inhibitory rate at the lowest concentration of the test compound [2]: 67%

Structure (SMILES): C[C@H]1CN(C(=O)C2Cc3ccccc3C2)Cc2cnc([C@@](C)(O)C(F)(F)F)n21 [Example 3, (2,3-dihydro-1H-inden-2-yl)((S)-5-methyl-3-((R)-1,1,1-trifluoro-2-hydroxypropan-2-yl)-5,6-dihydroimidazo[1,5-a]pyrazin-7(8H)-yl)methanone]
IC50 [1]: 16 nM
IC50 [2]: 14 nM

Structure (SMILES): C[C@H]1CN(C(=O)c2ccc(N3CCN(C)CC3)cc2)Cc2cnc([C@@](C)(O)C(F)(F)F)n21 [Example 93]
IC50 [1]: 8 nM
IC50 [2]: 11 nM

Structure (SMILES): C[C@H]1CN(C(=O)c2cnn(-c3ccc(F)cc3)c2C(F)(F)F)Cc2cnc([C@@](C)(O)C(F)(F)F)n21 [Example 17]
IC50 [1]: 8 nM
IC50 [2]: 7 nM

Structure (SMILES): C[C@H]1CN(C(=O)c2ccc(F)c(-c3ccnn3C)c2)Cc2cnc([C@@](C)(O)C(F)(F)F)n21 [Example 64]
IC50 [1]: 5 nM
IC50 [2]: 7 nM

Structure (SMILES): C[C@H]1CN(C(=O)c2cc(-c3ccc(C#N)cn3)nn2C)Cc2cnc([C@@](C)(O)C(F)(F)F)n21 [Example 73, 6-(1-methyl-5-((S)-5-methyl-3-((R)-1,1,1-trifluoro-2-hydroxypropan-2-yl)-5,6,7,8-tetrahydroimidazo[1,5-a]pyrazine-7-carbonyl)-1H-pyrazol-3-yl)nicotinonitrile]
IC50 [1]: 6 nM
IC50 [2]: 7 nM

Structure (SMILES): C[C@H]1CN(C(=O)c2c3c(F)cc(F)cc3nn2C)Cc2cnc([C@@](C)(O)C(F)(F)F)n21 [Example 6]
IC50 [1]: 11 nM
IC50 [2]: 11 nM

Structure (SMILES): C[C@H]1CN(C(=O)c2ccc(F)c(-c3ccncc3C#N)c2)Cc2cnc([C@@](C)(O)C(F)(F)F)n21 [Example 84]
IC50 [1]: 5 nM
IC50 [2]: 11 nM

Structure (SMILES): C[C@H]1CN(C(=O)c2cc(C3CC3)nn2C)Cc2onc([C@@](C)(O)C(F)(F)F)c21 [Example 108]
IC50 [1]: 5 nM
IC50 [2]: 6 nM

Structure (SMILES): C[C@H]1CN(C(=O)C2(C)CN(C3CC(F)(F)C3)C2)Cc2cnc([C@@](C)(O)C(F)(F)F)n21 [Example 91]
IC50 [1]: 49 nM
IC50 [2]: 28 nM

Structure (SMILES): C[C@H]1CN(C(=O)c2ccnc(N3CCC(F)(F)CC3)c2)Cc2cnc([C@@](C)(O)C(F)(F)F)n21 [Example 95]
IC50 [1]: 6 nM
IC50 [2]: 15 nM

Structure (SMILES): Cc1cc(C#N)ccc1-c1cc(C(=O)N2Cc3cnc([C@@](C)(O)C(F)(F)F)n3[C@@H](C)C2)n(C)n1 [Example 75]
IC50 [1]: 6 nM
IC50 [2]: 11 nM

Structure (SMILES): C[C@H]1CN(C(=O)c2cc(C3CC3)nc(C(F)(F)F)c2)Cc2cnc([C@@](C)(O)C(F)(F)F)n21 [Example 98]
IC50 [1]: 6 nM
IC50 [2]: 6 nM

Structure (SMILES): C[C@H]1CN(C(=O)c2c(C#N)c(C3CC3)nn2C)Cc2onc([C@@](C)(O)C(F)(F)F)c21 [Example 117]
IC50 [1]: 6 nM
IC50 [2]: 8 nM

Structure (SMILES): C[C@H]1CN(C(=O)c2cc(-c3ccc(S(C)(=O)=O)cc3)nn2C)Cc2cnc([C@@](C)(O)C(F)(F)F)n21 [Example 44]
IC50 [1]: 5 nM
IC50 [2]: 7 nM

Structure (SMILES): C[C@H]1CN(C(=O)c2nn(C)c(-c3ccc(C#N)cc3)c2Cl)Cc2cnc([C@@](C)(O)C(F)(F)F)n21 [Example 41]
IC50 [1]: 6 nM
IC50 [2]: 6 nM

Structure (SMILES): C[C@H]1CN(C(=O)c2cc(C3CC3)on2)Cc2cnc([C@@](C)(O)C(F)(F)F)n21 [Example 21]
IC50 [1]: 13 nM
IC50 [2]: 12 nM

Structure (SMILES): C[C@H]1CN(C(=O)C2CCC(n3cc(Cl)cn3)CC2)Cc2cnc([C@@](C)(O)C(F)(F)F)n21 (some centres unmarked) [Example 89]
IC50 [1]: 20 nM
IC50 [2]: 19 nM

Structure (SMILES): C[C@H]1CN(C(=O)c2c3cc(F)c(F)cc3nn2C)Cc2cnc([C@@](C)(O)C(F)(F)F)n21 [Example 9, (5,6-difluoro-2-methyl-2H-indazol-3-yl) ((S)-5-methyl-3-((R)-1,1,1-trifluoro-2-hydroxypropan-2-yl)-5,6-dihydroimidazo[1,5-a]pyrazin-7(8H)-yl)methanone]
IC50 [1]: 7 nM
IC50 [2]: 11 nM

Structure (SMILES): C[C@H]1CN(C(=O)C(C)(C)c2ccc(C(=O)O)c(C3CC3)c2)Cc2onc([C@@](C)(O)C(F)(F)F)c21 [Example 116]
IC50 [1]: 17 nM
IC50 [2]: 32 nM

Structure (SMILES): C[C@H]1CN(C(=O)c2ccc(C#N)c(-n3cccn3)c2)Cc2cnc([C@@](C)(O)C(F)(F)F)n21 [Example 74]
IC50 [1]: 6 nM
IC50 [2]: 11 nM

Structure (SMILES): C[C@H]1CN(C(=O)c2ccc(F)c(-c3ncc(F)cc3C#N)c2)Cc2cnc([C@@](C)(O)C(F)(F)F)n21 [Example 69]
IC50 [1]: 5 nM
IC50 [2]: 8 nM

Structure (SMILES): C[C@H]1CN(C(=O)c2c3cc(F)ccc3nn2C)Cc2cnc([C@@](C)(O)C(F)(F)F)n21 [Example 1]
IC50 [1]: 6 nM
IC50 [2]: 5 nM

Structure (SMILES): C[C@H]1CN(C(=O)c2cc3n(n2)CCO3)Cc2onc([C@@](C)(O)C(F)(F)F)c21 [Example 99]
IC50 [1]: 8 nM
IC50 [2]: 12 nM

Structure (SMILES): Cc1nc(-c2ccc(C#N)cc2)oc1C(=O)N1Cc2cnc([C@@](C)(O)C(F)(F)F)n2[C@@H](C)C1 [Example 46]
IC50 [1]: 5 nM
IC50 [2]: 5 nM

Structure (SMILES): C[C@H]1CN(C(=O)c2ncccc2-c2ccc(F)cc2)Cc2cnc([C@@](C)(O)C(F)(F)F)n21 [Example 39]
IC50 [1]: 46 nM
IC50 [2]: 18 nM

Structure (SMILES): C[C@H]1CN(C(=O)c2nc3ccc(F)cc3o2)Cc2cnc([C@@](C)(O)C(F)(F)F)n21 [Example 2]
IC50 [1]: 12 nM
IC50 [2]: 15 nM

Structure (SMILES): C[C@H]1CN(C(=O)c2cc(-c3ccc(Cl)cn3)nn2C)Cc2cnc([C@@](C)(O)C(F)(F)F)n21 [Example 66]
IC50 [1]: 4 nM
IC50 [2]: 6 nM

The next lines start with the values.

IC50 [1]: 4 nM
IC50 [2]: 6 nM
Structure (SMILES): C[C@H]1CN(C(=O)c2ccc(C3(O)CCC3)cc2)Cc2cnc([C@@](C)(O)C(F)(F)F)n21 [Example 51]

IC50 [1]: < 3 nM
inhibition at 0.003 µM [1]: 88%
IC50 [2]: < 3 nM
hPDHK2 inhibitory rate at the lowest concentration of the test compound [2]: 81%
Structure (SMILES): C[C@H]1CN(C(=O)c2ccnc(-c3ccc(F)cc3)c2)Cc2cnc([C@@](C)(O)C(F)(F)F)n21 [Example 48, (2-(4-fluorophenyl)pyridin-4-yl)((S)-5-methyl-3-((R)-1,1,1-trifluoro-2-hydroxypropan-2-yl)-5,6-dihydroimidazo[1,5-a]pyrazin-7(8H)-yl)methanone]

IC50 [1]: 3 nM
IC50 [2]: 8 nM
Structure (SMILES): C[C@H]1CN(C(=O)c2cc(C3CC3)n(CC(F)(F)F)n2)Cc2cnc([C@@](C)(O)C(F)(F)F)n21 [Example 37]

IC50 [1]: < 3 nM
inhibition at 0.003 µM [1]: 69%
IC50 [2]: 4 nM
Structure (SMILES): C[C@H]1CN(C(=O)c2n[nH]c3ccccc23)Cc2onc([C@@](C)(O)C(F)(F)F)c21 [Example 101]

IC50 [1]: 3 nM
IC50 [2]: 6 nM
Structure (SMILES): C[C@H]1CN(C(=O)c2cc(C3CC3)n[nH]2)Cc2onc([C@@](C)(O)C(F)(F)F)c21 [Example 111, (3-cyclopropyl-1H-pyrazol-5-yl)((R)-4-methyl-3-((R)-1,1,1-trifluoro-2-hydroxypropan-2-yl)-4,7-dihydroisoxazolo[5,4-c]pyridin-6(5H)-yl)methanone]

IC50 [1]: 4 nM
IC50 [2]: 5 nM
Structure (SMILES): C[C@H]1CN(C(=O)c2ccc(-c3ccc(F)cc3)cn2)Cc2cnc([C@@](C)(O)C(F)(F)F)n21 [Example 42]

IC50 [1]: 3 nM
IC50 [2]: 5 nM
Structure (SMILES): C[C@H]1CN(C(=O)c2cc(-c3ccccc3)nn2C)Cc2cnc([C@@](C)(O)C(F)(F)F)n21 [Example 15]

IC50 [1]: < 3 nM
inhibition at 0.003 µM [1]: 53%
IC50 [2]: 5 nM
Structure (SMILES): C[C@H]1CN(C(=O)c2ccnn2C2CC2)Cc2onc([C@@](C)(O)C(F)(F)F)c21 [Example 109]

IC50 [1]: 3 nM
IC50 [2]: 6 nM
Structure (SMILES): C[C@H]1CN(C(=O)c2ccc(F)c(-c3ccc(F)cn3)c2)Cc2cnc([C@@](C)(O)C(F)(F)F)n21 [Example 70]

IC50 [1]: 4 nM
IC50 [2]: 6 nM
Structure (SMILES): C[C@H]1CN(C(=O)c2n[nH]c3ccc(F)cc23)Cc2onc([C@@](C)(O)C(F)(F)F)c21 [Example 104]

IC50 [1]: 4 nM
IC50 [2]: 4 nM
Structure (SMILES): C[C@H]1CN(C(=O)c2cc(C3(C)CC3)nn2C)Cc2onc([C@@](C)(O)C(F)(F)F)c21 [Example 118]

IC50 [1]: 4 nM
IC50 [2]: 5 nM
Structure (SMILES): C[C@H]1CN(C(=O)c2cc(C3CC3)nn2CC(F)(F)F)Cc2cnc([C@@](C)(O)C(F)(F)F)n21 [Example 36]

IC50 [1]: < 3 nM
inhibition at 0.003 µM [1]: 73%
IC50 [2]: 4 nM
Structure (SMILES): C[C@H]1CN(C(=O)c2cccc(-c3ccc(F)cc3)n2)Cc2cnc([C@@](C)(O)C(F)(F)F)n21 [Example 38]

IC50 [1]: 3 nM
IC50 [2]: 3 nM
Structure (SMILES): C[C@H]1CN(C(=O)c2cccc(-c3ccccn3)c2)Cc2cnc([C@@](C)(O)C(F)(F)F)n21 [Example 49]
